Experimental data: patent US10487112B2, “Pediococcus acidilactici derived antimicrobial hexapeptide and preparation method thereof” (Jiangnan University, priority 2016, dated 2019)
Read-outs that look alike come from different tables or passages of the source. No end group written: not given here.

Assays:
[1] = Antioxidant capability, clearing hydrogen peroxide
Text: (§1) The feed contains a certain quantity of unsaturated fat, fatty acid, lipid-soluble vitamin, carotenoid and other lipid-soluble substances, which are easily oxidized in a storage process of the feed, and particularly fat and fatty acid can be oxidized to result in rancidity to generate different compounds such as aldehyde, alcohol, fat and acid which may generate various peculiar smells to seriously affect the palatability of the feed, and some compounds can generate adverse effects for the animals due to certain toxicity. The antioxidant capability of the lactein R16 to hydrogen peroxide, hydroxyl radicals, DPPH.radicals and superoxide anions is shown as FIG. 5.

[2] = Antioxidant capability, clearing DPPH radicals
Text: as §1

[3] = Antioxidant capability, clearing superoxide anions
Text: as §1

[4] = Antioxidant capability, clearing hydroxyl radicals
Text: as §1

[5] = tested on: Escherichia coli ATCC 25922; test: Antimicrobial spectrum, oxford-cup method; format: cell-based; parameters: key: “+++” represents for strong inhibition; “++” represents for relatively strong inhibition; “+” represents for inhibition; “−” represents for no inhibition; conditions: 100 mg·mL^−1, oxford-cup
Experimental: (§2) 8 parts of purified active substance lactein R16 with the concentration of 100 mg·mL^−1 is selected, and an inhibiting effect of the lactein R16 on Escherichia coli, Listeria monocytogenes and Staphylococcus aureus is detected by using an oxford-cup method.

[6] = tested on: Escherichia coli in the soybean meal; test: Inhibition of Escherichia coli in fermented soybean meal; format: cell-based; conditions: 48 h; for removal rate: 37° C.
Experimental: (a) crushing soybean meal by using a blade crusher, adding 4 parts (the weight of each part is 40 g) of soybean meal with the serial numbers of group 5, group 6, group 7 and group 8 into a 500 mL fermentation flask, and carrying out sterilization at 105° C. for 10 min;
(b) carrying out fermentation under conditions shown as table 3.
(c) measuring the amount of Escherichia coli according to the natural standard for measuring Escherichia coli in the feed.
The inhibiting effect of the lactein R16 to Escherichia coli in the soybean meal is studied by adding Escherichia coli into the sterilized soybean meal.

[7] = tested on: Listeria monocytogenes CMCC(B)54002; test: Minimum inhibitory concentration (MIC) method; format: cell-based; conditions: LB medium, 37° C., 18-24 h
Experimental: (§3) The antimicrobial activity is detected by adopting a minimum inhibitory concentration (MIC) method, and the operation is as follows:
(§4) (a) inoculating the bacteria into an LB liquid culture medium according to the inoculation amount of 1%, and carrying out shaking culture over the night at 37° C. and 200r·min^−1;
(§5) (b) inoculating the culture solution into 20 mL of the LB liquid culture medium according to the inoculation amount of 1%, and carrying out shaking culture at 37° C. and 200r·min′ until the OD600 is equal to about 0.5; […]
(§6) (e) adding 450 μL of the prepared bacterial suspension into an aseptic tissue culture plate, and then, respectively adding 50 μL of antimicrobial active substance diluents with corresponding concentrations to ensure that the concentrations of to-be-measured antimicrobial active substances are respectively 25.6, 12.8, 6.4, 3.2, 1.6, 0.8, 0.4, 0.2 and 0.1 mg·mL^−1; and carrying out culture in a 37° C. constant-temperature incubator for 18-24 h by taking 500 μL of the bacterial suspension as a positive control and 500 μL of the LB liquid culture medium as a negative control; and […]

Escherichia coli [8] = test: Stability of lactein R16 in pH (antimicrobial experiment after pH treatment); format: physicochemical
Experimental: 10 parts of purified active substance lactein R16 with the concentration of 100 mg·mL^−1 is selected, the pH of the lactein R16 is respectively regulated to be 1.0-10.0 by using 1.0 mol·L^−1 NaOH and 1.0 mol·L^−1 HCl, the lactein R16 is treated in a 37° C. water bath kettle for 2 h, then, the pH of the lactein R16 is regulated to be 4.5, and an antimicrobial experiment is performed to observe the inhibition of the lactein R16 to Escherichia coli. The result is shown as FIG. 2.
The antimicrobial activity of the lactein R16 is reduced step by step when the pH is 6.0-8.0, the reduction tendency is slow, and the residual activity is maintained at about 75%, which proves that the stability of the lactein R16 is reduced to a certain extent under such pH condition, but the pH has little influences on the stability of the lactein R16.

Escherichia coli [9] = test: Thermal stability of lactein R16 (antimicrobial experiment after heat treatment); format: physicochemical
Experimental: 8 parts of purified active substance lactein R16 with the concentration of 100 mg·mL^−1 is selected and is respectively treated at 40° C., 50° C., 60° C., 70° C., 80° C., 90° C. and 100° C. for 30 min and is subjected to high-pressure sterilization at 121° C. for 15 min, and an antimicrobial experiment is performed to observe the inhibition of the lactein R16 to Escherichia coli. The result is shown as FIG. 3.
The antimicrobial activity of the lactein R16 is lost by 59.98% after the lactein R16 is treated at 121° C. for 15 min.

[10] = tested on: Listeria monocytogenes CMCC(B)54002; test: Antimicrobial spectrum, oxford-cup method; format: cell-based; parameters: key to Antimicrobial level: “+++” represents for strong inhibition; “++” represents for relatively strong inhibition; “+” represents for inhibition; “−” represents for no inhibition; conditions: 100 mg·mL^−1, oxford-cup
Experimental: as §2

Escherichia coli K99 = test: Antimicrobial spectrum, oxford-cup method; format: cell-based; parameters: key to Antimicrobial level: “+++” represents for strong inhibition; “++” represents for relatively strong inhibition; “+” represents for inhibition; “−” represents for no inhibition; conditions: 100 mg·mL^−1, oxford-cup
Experimental: as §2

[11] = tested on: Staphylococcus aureus ATCC 6538; test: Antimicrobial spectrum, oxford-cup method; format: cell-based; parameters: key to Antimicrobial level: “+++” represents for strong inhibition; “++” represents for relatively strong inhibition; “+” represents for inhibition; “−” represents for no inhibition; conditions: 100 mg·mL^−1, oxford-cup
Experimental: as §2

Escherichia coli JM109 = test: Antimicrobial spectrum, oxford-cup method; format: cell-based; parameters: key to Antimicrobial level: “+++” represents for strong inhibition; “++” represents for relatively strong inhibition; “+” represents for inhibition; “−” represents for no inhibition; conditions: 100 mg·mL^−1, oxford-cup
Experimental: as §2

Lactobacillus plantarum = test: Influences on probiotics, viable count; format: cell-based; conditions: MRS medium with 6.4 mg·mL^−1, 37° C., 24 h
Experimental: (§7) Each of probiotics is subjected to two-stage activation, is inoculated into an MRS culture medium containing 6.4 mg·mL^−1 of antimicrobial active substances according to the inoculation amount of 1% and is cultured at the constant temperature of 37° C. for 24 h in contrast with the probiotics inoculated into the MRS culture medium. Coated plate counting is performed by using a viable count method. The result is shown as FIG. 4.
(§8) A microecological preparation used as one of green feed additives is widely applied to the feed, wherein a composite microecological preparation prepared from Saccharomycetes, Lactic Acid Bacteria and Bacillus is more common, not only can degrade and soften crude fibers and increase the content of proteins, but also can improve the palatability of the feed, regulate the intestinal microecological balance of the animals and promote digestive absorption and growth. Saccharomyces cerevisiae, Pediococcus pentosaceus, Enterococcus faecium, Lactobacillus plantarum and Bacillus subtilis are selected as a study object to study the influences of the lactein R16 on Saccharomyces cerevisiae, Pediococcus pentosaceus, Enterococcus faecium, Lactobacillus plantarum and Bacillus subtilis, and the result is shown as FIG. 4.

Saccharomyces cerevisiae = test: Influences on probiotics, viable count; format: cell-based; conditions: MRS medium with 6.4 mg·mL^−1, 37° C., 24 h
Experimental: as §7, §8

Pediococcus pentosaceus = test: Influences on probiotics, viable count; format: cell-based; conditions: MRS medium with 6.4 mg·mL^−1, 37° C., 24 h
Experimental: as §7, §8

Bacillus subtilis = test: Influences on probiotics, viable count; format: cell-based; conditions: MRS medium with 6.4 mg·mL^−1, 37° C.
Experimental: as §7, §8

Enterococcus faecium = test: Influences on probiotics, viable count; format: cell-based; conditions: MRS medium with 6.4 mg·mL^−1, 37° C.
Experimental: as §7, §8

[12] = tested on: Staphylococcus aureus ATCC 6538; format: cell-based
Experimental: as §3, §4, §5, §6

**Q.** With ENGEEE [lactein R16, ENGEEE] as the substance, how does the clearance rate [1] read?
**A.** 25.65%

**Q.** And the clearance rate [2]?
**A.** 79.42%

**Q.** And the clearance rate [3]?
**A.** 10.11%

**Q.** And the clearance rate [4]?
**A.** 70.13%

**Q.** What about the Antimicrobial level [5] of the same substance?
**A.** +

**Q.** And the “amount of Escherichia coli after fermentation” value ([6]; 0.512 g in 40 g soybean meal, material-to-liquid ratio 1:0.8, 37° C., 1380·100 g^−1 before fermentation)?
**A.** 123 ·100 g^−1

**Q.** And the removal rate ([6]; material-to-liquid ratio 1:0.8, 0.512 g in 40 g soybean meal)?
**A.** 33.44%

**Q.** And the removal rate ([6]; material-water ratio 1:0.12, 0.512 g in 40 g soybean meal)?
**A.** 56.64%

**Q.** And the MIC [7]?
**A.** 6400 µg/mL

**Q.** And the “pH at which the antimicrobial activity reaches the maximum” value (Escherichia coli [8]; 100 mg·mL^−1, pH 1.0-10.0, 37° C. water bath 2 h, then pH 4.5, inhibition of Escherichia coli)?
**A.** 3.0-5.0

**Q.** And the residual activity (Escherichia coli [8]; pH 6.0-8.0, 37° C. 2 h, inhibition of Escherichia coli)?
**A.** about 75%

**Q.** And the pH stability (Escherichia coli [8]; summary statement)?
**A.** good

**Q.** What about the “activity retained in the process of pelletizing” value (Escherichia coli [9]; pelletizing at 75-85° C. for 1-2 min) of the same substance?
**A.** completely retained

**Q.** And the thermal stability (Escherichia coli [9]; summary statement)?
**A.** good

**Q.** What about the “change of antimicrobial activity” value (Escherichia coli [9]; treated at 40, 50, 60, 70 and 80° C. for 30 min, 100 mg·mL^−1) of the same substance?
**A.** no obvious changes

**Q.** What about the antimicrobial activity lost (Escherichia coli [9]; treated at 90° C. for 30 min) of the same substance?
**A.** 21.95%

**Q.** And the antimicrobial activity lost (Escherichia coli [9]; treated at 100° C. for 30 min)?
**A.** 49.47%

**Q.** And the antimicrobial activity lost (Escherichia coli [9]; treated at 121° C. for 15 min (high-pressure sterilization))?
**A.** 59.98%

**Q.** And the Antimicrobial level [10]?
**A.** ++

**Q.** And the “antimicrobial activity (in words)” value [10]?
**A.** relatively strong antimicrobial activity

**Q.** What about the Antimicrobial level (Escherichia coli K99) of the same substance?
**A.** ++

**Q.** And the “antimicrobial activity (in words)” value (Escherichia coli K99)?
**A.** relatively strong antimicrobial activity

**Q.** And the Antimicrobial level [11]?
**A.** +++

**Q.** And the “antimicrobial activity (in words)” value [11]?
**A.** strongest

**Q.** What about the Antimicrobial level (Escherichia coli JM109) of the same substance?
**A.** ++

**Q.** And the “antimicrobial activity (in words)” value (Escherichia coli JM109)?
**A.** relatively strong antimicrobial activity

**Q.** And the “effect on Lactobacillus plantarum (in words)” value (Lactobacillus plantarum)?
**A.** a certain effect on proliferating

**Q.** What about the “amount of Saccharomyces cerevisiae increased as comparison with contrast” value (Saccharomyces cerevisiae) of the same substance?
**A.** 24.50%

**Q.** And the “effect on Saccharomyces cerevisiae (in words)” value (Saccharomyces cerevisiae)?
**A.** a certain effect on proliferating

**Q.** And the “change of total bacterial count as comparison with contrast” value (Pediococcus pentosaceus)?
**A.** no obvious changes

**Q.** And the “total bacterial count after growing for 24 h” value (Bacillus subtilis)?
**A.** about 10^8 CFU·mL^−1

**Q.** And the “total bacterial count reduced as comparison with contrast” value (Bacillus subtilis; 24 h)?
**A.** 4.03%

**Q.** And the “total bacterial count after growing for 24 h” value (Enterococcus faecium)?
**A.** about 10^8 CFU·mL^−1

**Q.** And the “total bacterial count reduced as comparison with contrast” value (Enterococcus faecium; 24 h)?
**A.** 6.92%

**Q.** What about the MIC ([12]; ATCC 6538) of the same substance?
**A.** 3400 µg/mL

**Q.** And the MIC ([12]; LB medium, 37° C., 18-24 h)?
**A.** 3200 µg/mL
